# Test results from ChEMBL document CHEMBL1122692, “Catechol derivatives of 6-aminobenzocycloheptene: assessment of dopaminergic effects” (1984).
# What was measured:
# Format in all cases: functional
# Felis catus [1] = assay: Compound was evaluated for the biological activity (pressure) in anesthetized cats at a dose of 10 ug/kg
# Felis catus [2] = assay: Compound was evaluated for the biological activity (pressure) in anesthetized cats at a dose of 40 ug/kg
# Felis catus [3] = assay: Compound was evaluated for the biological activity (pressure) in anesthetized cats at a dose of 20 ug/kg
compound,measurement,setting,value
NC1CCCc2c(ccc(O)c2O)C1 (stereo not drawn),Pressure,Felis catus [1],15 mmHg
same,Pressure,Felis catus [2],70 mmHg
same,Pressure,Felis catus [3],38 mmHg
